Assay results: patent US20250234862A1, “FUNGICIDAL COMPOSITION FOR PREVENTING AND CONTROLLING ROOT ROT DISEASES IN CROPS CAUSED BY FUSARIUM SPP” (Institute Of Plant Protection And Agro-Products Safety, …, priority 2024, published 2025)

Legend:
[1] = test system: Fusarium pseudogramineaqum; assay: Indoor toxicity determination, mycelial growth assay on PDA medium; assay type: cell-based; details: mycelial growth inhibition, 25° C., wheat Fusarium pseudogramineaqum
Description: (§1) A detailed analysis of the fungicidal properties of cyclobutrifluram and ipconazole was conducted. First, the EC50 ([…]) of the two single compounds (hereinafter referred to as agents) was determined. According to the EC50 of the two single agents, the combination ratio of the two agents was set according to the Wadley method, and based on the Wadley synergistic coefficient SR value.
(§2) The experimental targets were Fusarium pseudogramineaqum and Fusarium solani. The cyclobutrifluram and ipconazole were selected, and the PDA solid medium were selected, and the required liquid chemicals plates were prepared at about 18 ml per plate. The mycelium blocks with 5 mm diameter were prepared at the edge of pre cultured colonies using a sterilized punch, transferred to different culture media plates, and cultivated at 25° C. The experiment used the mycelial growth assay method to prepare drug containing culture media according to different treatments. The mycelium blocks with 5 mm diameter were prepared at the edge of pre cultured colonies using a sterilized punch and transferred to different culture media plates with different drug contents. The colony diameter was measured using the cross over method, and the colony diameter (mm) was measured. The growth inhibition rate was calculated using the following formula: […]
(§3) The mycelial growth inhibition rate was converted to the inhibition probability value (y), and the drug concentration was converted to the concentration logarithm (x). The concentration logarithm was used as the x-axis and the probability value was used as the y-axis to create a toxicity regression line. The toxicity regression equation of a single agent of cyclobutrifluram and ipconazole and a mixed agent of cyclobutrifluram and ipconazole against the pathogen were obtained, and the EC50 value and correlation coefficient r were calculated.
(§4) According to the Wadley method to evaluate the interaction of the mixed agent, the calculation formula is as follows: […]
(§5) Among them, a and b are the proportions of each component in the mixed agent, and the SR value is used to analyze the mixing effect. If SR≤0.5, the mixed agent of the two drugs has an antagonistic effect; if SR=0.5-1.5, the mixed agent of the two drugs has an additive effect; if SR≥1.5, the mixed agent of the two drugs has a synergistic effect.

Fusarium solani = assay: as above; assay type: cell-based; details: mycelial growth inhibition, 25° C., soybean Fusarium solani
Description: as §1, §2, §3, §4, §5

[2] = test system: wheat stem base rot disease; assay: Field control experiment on wheat stem base rot disease (seed coating); assay type: in vivo, wheat variety Quanmai 725
Description: Experiments employed 20% cyclobutrifluram·ipconazole suspension seed coating agent in example 1 of formulation implementation and 45% cyclobutrifluram suspension seed coating agent, 20% ipconazole suspension seed coating agent, and 15% carbendazim·thiram suspension seed coating agent. Experimental site was located at Liu Lake Farm in Suixi County using the wheat variety “Quanmai 725”. The agent was applied to seeds at a 1:1000 ratio by weight for seed coating. Additionally, the agent was diluted into a solution, with a final volume of 1 liter of solution used to treat 100 kg of wheat seeds, which were then dried in the shade before direct planting. Disease investigations were conducted during the tillering stage and after the growth of wheat entered the jointing-booting stage (Table 3).

SMILES | EC50 [1] [ppm] | EC50 (Fusarium solani) [ppm] | control effect on wheat stem base rot disease (in words) [2]
O=C(NC1CCC1c1ccc(Cl)cc1Cl)c1cccnc1C(F)(F)F (stereo not drawn) [Cyclobutrifluram] | 0.3033 | 0.3774 | significant control effect
CC(C)C1CCC(Cc2ccc(Cl)cc2)C1(O)Cn1cncn1 (stereo not drawn) [Ipconazole, (1RS,2SR,5RS;1RS,2SR,5SR)-2-(4-chlorobenzyl)-5-isopropyl-1-(1H-1,2,4-triazol-1-ylmethyl)cyclopentanol] | 0.1506 | 0.1808 | significant control effect
